Data as given in patent publication US20260355196A1, “INHIBITORS AND DEGRADERS OF PIP4K PROTEIN” (Larkspur Biosciences, Inc., priority 2023, published 2026).

Target: T1, PIP4K2C (Homo sapiens, UniProt Q8TBX8)
T1 sequence (Q8TBX8 1-421): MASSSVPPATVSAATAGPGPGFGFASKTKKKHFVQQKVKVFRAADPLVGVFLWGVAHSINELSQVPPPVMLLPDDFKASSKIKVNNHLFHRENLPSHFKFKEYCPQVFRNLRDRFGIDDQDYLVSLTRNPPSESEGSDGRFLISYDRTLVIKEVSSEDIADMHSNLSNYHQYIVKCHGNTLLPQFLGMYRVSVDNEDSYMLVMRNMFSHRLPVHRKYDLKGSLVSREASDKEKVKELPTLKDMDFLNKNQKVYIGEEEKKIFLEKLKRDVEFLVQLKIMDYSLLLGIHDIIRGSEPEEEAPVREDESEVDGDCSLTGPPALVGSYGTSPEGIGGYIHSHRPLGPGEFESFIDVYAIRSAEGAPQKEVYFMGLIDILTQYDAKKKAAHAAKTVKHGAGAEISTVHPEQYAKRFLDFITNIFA
Test: Enzyme Binding Assay (KINOMEscan): active site-directed competition binding to an immobilized ligand
Design: purchased Eurofins DiscoverX, San Diego, CA 87-0007-1094
Conditions: 11-point dose response, duplicate, top concentration 5 micromolar; read-out: Pip4k2c Kd: IC50
Experimental: Example B-1: Enzyme Binding Assays (KINOMEscan)
PIP4K2C binding constants disclosed herein were determined using the proprietary Human PIP4K2C binding assay (Catalog number 87-0007-1094, Eurofins DiscoverX, San Diego, CA). This assay measures active site-directed competition binding to an immobilized ligand (see https://doi.org/10.1038/nbt1068, herein incorporated by reference in its entirety). Experiments were conducted using an 11-point dose response curve, in duplicate, with a top starting concentration of 5 micromolar; the Levenberg-Marquardt algorithm was used to fit a Hill equation to dose-response data to calculate IC50 values (see Table 5).

Structure (SMILES)	IC50
CN1CC(Nc2ncc(Cl)c(-c3cccc(-c4ccccc4)c3)n2)CCC1=O (stereo not drawn) [Compound 14, 5-((4-([1,1′-biphenyl]-3-yl)-5-chloropyrimidin-2-yl)amino)-1-methylpiperidin-2-one]	< 500 nM
O=C1CC(Nc2ncc(Cl)c(-c3cccc(-c4ccccc4)c3)n2)CCN1 (stereo not drawn) [Compound 15, 4-((4-([1,1′-biphenyl]-3-yl)-5-chloropyrimidin-2-yl)amino)piperidin-2-one]	< 500 nM
NC(=O)[C@H]1CC[C@H](Nc2ncc(Cl)c(-c3cccc(-c4ccccc4)c3)n2)CC1 [Compound 19, trans-4-((4-([1,1′-biphenyl]-3-yl)-5-chloropyrimidin-2-yl)amino)cyclohexane-1-carboxamide]	< 500 nM
CC(=O)N1CCC(Nc2ncc(Cl)c(-c3cccc(-c4ccccc4)c3)n2)CC1 [Compound 23, 1-(4-((4-([1,1′-biphenyl]-3-yl)-5-chloropyrimidin-2-yl)amino)piperidin-1-yl)ethan-1-one]	< 500 nM
CC(=O)N1CCC(Nc2ncc(Cl)c(N3CCCCC3)n2)CC1 [Compound 24, 1-(4-((5-chloro-4-(piperidin-1-yl)pyrimidin-2-yl)amino)piperidin-1-yl)ethan-1-one]	1000 to 5000 nM
CC(=O)N1CCCC(Nc2ncc(Cl)c(-c3ccc(F)cc3)n2)C1 (stereo not drawn) [Compound 26, 1-(3-((5-chloro-4-(4-fluorophenyl)pyrimidin-2-yl)amino)piperidin-1-yl)ethan-1-one]	500 to 1000 nM
CC(=O)N1CCC(Nc2ncc(Cl)c(-c3ccc(F)cc3)n2)CC1 [Compound 27, 1-(4-((5-chloro-4-(4-fluorophenyl)pyrimidin-2-yl)amino)piperidin-1-yl)ethan-1-one]	500 to 1000 nM
CC(=O)N1CCC[C@H](Nc2ncc(Cl)c(N3CCC(c4ccccn4)C3)n2)C1 (stereo partly drawn) [Compound 29, 1-((3S)-3-((5-chloro-4-(3-(pyridin-2-yl)pyrrolidin-1-yl)pyrimidin-2-yl)amino)piperidin-1-yl)ethan-1-one]	1000 to 5000 nM
CC(=O)N[C@H]1CC[C@@H](Nc2ncc(Cl)c(-c3cccc(-c4ccccc4)c3)n2)CC1 [Compound 31, N-(cis-4-((4-([1,1′-biphenyl]-3-yl)-5-chloropyrimidin-2-yl)amino)cyclohexyl)acetamide]	500 to 1000 nM
CC(=O)N1CCC[C@H](Nc2ncc(Cl)c(-c3cccc(N4CCCCC4)c3)n2)C1 [Compound 37, (S)-1-(3-((5-chloro-4-(3-(piperidin-1-yl)phenyl)pyrimidin-2-yl)amino)piperidin-1-yl)ethan-1-one]	< 500 nM
NC(=O)C1CCCC(Nc2ncc(F)c(-c3cccc(-n4ccccc4=O)c3)n2)C1 (stereo not drawn) [Compound 40, 3-[[5-fluoro-4-[3-(2-oxo-1-pyridyl)phenyl]pyrimidin-2-yl]amino]cyclohexanecarboxamide]	< 500 nM
CC(=O)N[C@H]1CC[C@@H](Nc2ncc(Cl)c(-c3cccc(-n4ccccc4=O)c3)n2)CC1 [Compound 93, cis-N-((1s,4s)-4-((5-chloro-4-(3-(2-oxopyridin-1 (2H)-yl)phenyl)pyrimidin-2-yl)amino)cyclohexyl)acetamide]	< 500 nM
CNC(=O)[C@H]1C[C@@H](Nc2ncc(Cl)c(-c3cccc(-n4ccccc4=O)c3)n2)C1 [Compound 94, cis-3-((5-chloro-4-(3-(2-oxopyridin-1 (2H)-yl)phenyl)pyrimidin-2-yl)amino)-N-methylcyclobutane-1-carboxamide]	< 500 nM
CC(=O)N[C@H]1CC[C@H](Nc2ncc(Cl)c(-c3ccc(=O)n(C4CC4)c3)n2)CC1 [Compound 96, trans-N-((1r,4r)-4-((5-chloro-4-(1-cyclopropyl-6-oxo-1,6-dihydropyridin-3-yl)pyrimidin-2-yl)amino)cyclohexyl)acetamide]	500 to 1000 nM
CC(=O)N[C@H]1CC[C@@H](Nc2ncc(Cl)c(-c3cnn(C4CC4)c3)n2)CC1 [Compound 99, cis-N-((1s,4s)-4-((5-chloro-4-(1-cyclopropyl-1H-pyrazol-4-yl)pyrimidin-2-yl)amino)cyclohexyl)acetamide]	500 to 1000 nM
CC(=O)N[C@H]1CC[C@H](Nc2ncc(Cl)c(C3CCCN(C(=O)C4CC4)C3)n2)CC1 (stereo partly drawn) [Compound 100, trans-N-(4-((5-chloro-4-(1-(cyclopropanecarbonyl)piperidin-3-yl)pyrimidin-2-yl)amino)cyclohexyl)acetamide]	< 500 nM
CNC(=O)[C@H]1CC[C@H](Nc2ncc(Cl)c(-c3cccc(-c4ccc(F)cc4)c3)n2)CC1 [Compound 101, trans-(1r,4r)-4-((5-chloro-4-(4′-fluoro-[1,1′-biphenyl]-3-yl)pyrimidin-2-yl)amino)-N-methylcyclohexane-1-carboxamide]	< 500 nM

Other lines, results leading:

IC50	Structure (SMILES)
< 500 nM	CC(=O)N1CCC2(CCC(C(=O)N3CCC(Nc4ncc(Cl)c(-c5cccc(-c6ccccc6)c5)n4)CC3)CC2)CC1 [Compound 13, 1-(9-(4-((4-([1,1′-biphenyl]-3-yl)-5-chloropyrimidin-2-yl)amino)piperidine-1-carbonyl)-3-azaspiro[5.5]undecan-3-yl)ethan-1-one]
< 500 nM	CN1CCC(Nc2ncc(Cl)c(-c3cccc(-c4ccccc4)c3)n2)CC1=O (stereo not drawn) [Compound 16, 4-((4-([1,1′-biphenyl]-3-yl)-5-chloropyrimidin-2-yl)amino)-1-methylpiperidin-2-one]
< 500 nM	O=C1CCC(Nc2ncc(Cl)c(-c3cccc(-c4ccccc4)c3)n2)CN1 (stereo not drawn) [Compound 17, 5-((4-([1,1′-biphenyl]-3-yl)-5-chloropyrimidin-2-yl)amino)piperidin-2-one]
< 500 nM	CC(=O)N1CCC[C@H](Nc2ncc(Cl)c(-c3cccc(-c4ccccc4)c3)n2)C1 [Compound 18, (S)-1-(3-((4-([1,1′-biphenyl]-3-yl)-5-chloropyrimidin-2-yl)amino)piperidin-1-yl)ethan-1-one]
1000 to 5000 nM	CC(=O)N1CCC[C@H](Nc2ncc(Cl)c(N3CCC(c4ccccc4)C3)n2)C1 (stereo partly drawn) [Compound 20, 1-((3S)-3-((5-chloro-4-(3-phenylpyrrolidin-1-yl)pyrimidin-2-yl)amino)piperidin-1-yl)ethan-1-one]
< 500 nM	CC(=O)N1CCCC(Nc2ncc(Cl)c(-c3cccc(-c4ccccc4)c3)n2)C1 (stereo not drawn) [Compound 21, 1-(3-((4-([1,1′-biphenyl]-3-yl)-5-chloropyrimidin-2-yl)amino)piperidin-1-yl)ethan-1-one]
< 500 nM	NC(=O)C1CCCC(Nc2ncc(Cl)c(-c3cccc(-c4ccccc4)c3)n2)C1 (stereo not drawn) [Compound 22, 3-((4-([1,1′-biphenyl]-3-yl)-5-chloropyrimidin-2-yl)amino)cyclohexane-1-carboxamide]
500 to 1000 nM	NC(=O)[C@H]1CC[C@@H](Nc2ncc(Cl)c(-c3ccc(F)cc3)n2)CC1 [Compound 25, cis-4-((5-chloro-4-(4-fluorophenyl)pyrimidin-2-yl)amino)cyclohexane-1-carboxamide]
< 500 nM	CC(=O)N1CCC(Nc2ncc(Cl)c(C3CCN(c4ccccc4)C3)n2)CC1 (stereo not drawn) [Compound 30, 1-(4-((5-chloro-4-(1-phenylpyrrolidin-3-yl)pyrimidin-2-yl)amino)piperidin-1-yl)ethan-1-one]
< 500 nM	CC(=O)N[C@H]1CC[C@H](Nc2ncc(Cl)c(-c3cccc(-c4ccccc4)c3)n2)CC1 [Compound 32, N-(trans-4-((4-([1,1′-biphenyl]-3-yl)-5-chloropyrimidin-2-yl)amino)cyclohexyl)acetamide]
< 500 nM	CC(=O)N1CCC[C@H](Nc2ncc(Cl)c(N3CCCC(c4ccccc4)C3)n2)C1 (stereo partly drawn) [Compound 35, 1-((3S)-3-((5-chloro-4-(3-phenylpiperidin-1-yl)pyrimidin-2-yl)amino)piperidin-1-yl) ethan-1-one]
< 500 nM	CC(=O)N1CCC[C@H](Nc2ncc(Cl)c(-c3cccc(C4CCCCC4)c3)n2)C1 [Compound 39, (S)-1-(3-((5-chloro-4-(3-cyclohexylphenyl)pyrimidin-2-yl)amino)piperidin-1-yl)ethan-1-one]
< 500 nM	CNC(=O)[C@H]1CC[C@H](Nc2ncc(Cl)c(-c3cccc(-c4cccc(=O)[nH]4)c3)n2)CC1 [Compound 92, trans-(1r,4r)-4-((5-chloro-4-(3-(6-oxo-1,6-dihydropyridin-2-yl)phenyl)pyrimidin-2-yl)amino)-N-methylcyclohexane-1-carboxamide]
1000 to 5000 nM	CNC(=O)[C@H]1CC[C@H](Nc2ncc(Cl)c(-c3ccc(=O)n(-c4ccc(F)cc4)c3)n2)CC1 [Compound 95, trans-(1r,4r)-4-((5-chloro-4-(1-(4-fluorophenyl)-6-oxo-1,6-dihydropyridin-3-yl)pyrimidin-2-yl)amino)-N-methylcyclohexane-1-carboxamide]
< 500 nM	CNC(=O)[C@H]1C[C@@H](Nc2ncc(Cl)c(-c3cnn(C4CC4)c3)n2)C1 [Compound 97, cis-3-((5-chloro-4-(1-cyclopropyl-1H-pyrazol-4-yl)pyrimidin-2-yl)amino)-N-methylcyclobutane-1-carboxamide]
< 500 nM	CC(=O)N1CCC(Nc2ncc(Cl)c(-c3cnn(C4CC4)c3)n2)CC1 [Compound 98, 1-(4-((5-chloro-4-(1-cyclopropyl-1H-pyrazol-4-yl)pyrimidin-2-yl)amino)piperidin-1-yl)ethan-1-one]
